Earlier results, collected in patent publication US7476665B2, “Benzodiazepine CGRP receptor antagonists” (Merck & Co., Inc., priority 2003, dated 2009).
Read-outs that look alike come from different tables or passages of the source. Where no end group is shown, it is not given here.

Columns and labels:
middle meningeal artery = conditions: rats, electrical stimulation of the dura mater, prior administration (Williamson et al. 1997)
facial blood flow [1] = conditions: rat, trigeminal ganglion stimulation (Escott et al. 1995)
facial blood flow [2] = conditions: marmoset, electrical stimulation of the trigeminal ganglion (Doods et al. 2000)

Row | Compound | effect on increase of middle meningeal artery diameter (middle meningeal artery) | effect on increase of facial blood flow (facial blood flow [1]) | effect on increase of facial blood flow (facial blood flow [2])
1 | CGRP(8-37): a peptide CGRP antagonist (VTHRLAGLLSRSGGVVKNNFVPTNVGSKAF; ends and bridges not checked; UniProt P06881 90-119, looked up, fragment) | blocked | inhibited | –
2 | NCCCC[C@H](NC(=O)[C@@H](Cc1cc(Br)c(O)c(Br)c1)NC(=O)N1CCC(N2Cc3ccccc3NC2=O)CC1)C(=O)N1CCN(c2ccncc2)CC1 [BIBN4096BS] | – | – | blocked
